Measurements: the RepoRT retention time repository (doi:10.1038/s41597-019-0305-1)

Experiment: RP, Waters SunFire C18, 50 × 4.6 mm, 3.5 µm, 0.5 mL/min, estimated dead time 1.1 min; A: water + 0.1% formic acid; B: acetonitrile + 0.1% formic acid; gradient (min/%B) 0/5 7/100 8/100
Conditions: stereoisomer not certain

Compound | LC retention time
CCCCCC1=CC(=O)C=C(OC)C12C(=O)Oc1cc(O)c(C(=O)O)c(CCCCC)c12 (stereo not drawn) | 7.48 min
COC(=O)c1c(C)cc(OC(=O)c2c(C)cc(OC(=O)c3c(C)cc(OC)cc3O)cc2O)cc1O | 7.74 min
CC(=O)C1=C(O)C=C2Oc3c(C(C)=O)c(O)c(C)c(O)c3C2(C)C1=O (stereo not drawn) | 7.27 min
CCCCCc1cc(O)c(OC(=O)c2c(CCC)cc(OC)cc2OC)c(O)c1C(=O)O | 6.84 min
COc1cc(C)c2c(c1C)Oc1c(cc(O)c(C(=O)O)c1C)OC2=O | 6.23 min
COC(=O)C(CC(C)C)NC(=O)C(=C1OC(=O)C(c2ccccc2)=C1O)c1ccccc1 (stereo not drawn) | 7.82 min
CCCc1cc(OC)cc(O)c1C(=O)O | 5.25 min
CCCCCc1cc(OC)cc(O)c1C(=O)Oc1cc(O)c(C(=O)O)c(CCC)c1 | 7.47 min
Cc1cc(O)c(C=O)c2c1C(=O)Oc1c(CO)c(O)c(C(=O)O)c(C)c1O2 | 5.62 min
CCCCCc1cc(O)cc(OC)c1C(=O)Oc1c(O)cc(CCCCC)c(C(=O)O)c1O | 6.54 min
Cc1cc(O)c(C=O)c(O)c1 | 4.33 min
Cc1cc(O)c2c(c1)C(=O)c1c(c(O)cc(O)c1-c1c(C)cc(O)c3c1C(=O)c1cc(O)cc(O)c1C3=O)C2=O | 6.58 min
CCC(C)C(NC(=O)c1ccccc1)C(=O)OCC(NC(=O)c1ccccc1)C(C)C (stereo not drawn) | 6.17 min
CCOCc1c(O)c(C(=O)O)c(C)c2c1OC(=O)c1c(C)cc(O)c(C=O)c1O2 | 7.27 min
CCCCCc1cc(OC(=O)c2c(CCCCC)cc(O)cc2OC)cc(OC)c1C(=O)O | 6.6 min
COC(=O)C(Cc1ccccc1)NC(=O)C(=C1OC(=O)C(c2ccccc2)=C1O)c1ccccc1 (stereo not drawn) | 7.65 min
Cc1cc(OC(=O)c2c(C)cc(OC(=O)c3c(C)cc(O)cc3O)cc2O)cc(O)c1C(=O)O | 6.53 min
COc1cc(O)c2c(c1)C(=O)c1c(O)c(C)cc(O)c1C2=O | 4.75 min
COC(=O)C(=C1OC(=O)C(c2ccccc2)=C1O)c1ccccc1OC | 6.75 min
CCCCCC(=O)Cc1cc(O)cc(O)c1C(=O)Oc1cc(O)c(C(=O)O)c(CCCCC)c1 | 6.74 min
Cc1cc(O)cc(O)c1C(=O)Oc1cc(C)c(C(=O)Oc2c(O)cc(O)c(C(=O)O)c2C)c(O)c1 | 5.63 min
COC(=O)c1c(C)cc(O)cc1O | 4.63 min
CC(=O)OCc1c(O)c(C(=O)O)c(C)c2c1OC(=O)c1c(C)cc(O)c(C=O)c1O2 | 7.28 min
O=C(O)c1cc(O)c2c(c1)C(=O)c1cc(O)cc(O)c1C2=O | 5.06 min

Compound | LC retention time
COc1cc(OC(=O)c2c(C)cc(O)cc2O)cc(C)c1C(=O)Oc1cc(C)c(C(=O)O)c(O)c1 | 6.2 min
CCCCCc1cc(OC)cc(O)c1C(=O)O | 6.19 min
Cc1cc(O)cc2oc3cc(O)cc(O)c3c(=O)c12 | 5.15 min
COc1cc(C)c(C(=O)O)c(O)c1C | 5.09 min
COc1cc(OC)c2c(=O)cc(C)oc2c1C | 4.51 min
Cc1cc(OC(=O)c2c(C)cc(O)cc2O)cc(O)c1C(=O)O | 5.3 min
COC(=O)c1c(C)cc(O)c(C)c1O | 5.37 min
COC1=C(O)c2cc3oc(C(C)=O)c(O)c3c(O)c2C(=O)C1=O | 4.27 min
CCCCCCCCCCCCCCC(C(=O)OC)C(CC(=O)O)C(=O)O (stereo not drawn) | 8 min
COC1=CC(=O)c2c(O)c3c(c(O)c2C1=O)CC(C)OC3=O (stereo not drawn) | 4.41 min
COc1cc(C)c2c(=O)c3c(O)cc(OC)cc3oc2c1 | 6.94 min
COC12CC(=O)C(C(C)=O)=C(O)C1(C)c1c(O)c(C)c(O)c(C(C)=O)c1O2 (stereo not drawn) | 7.08 min
C=C1C(=O)OC(CCCCCCCCCCCCCC(C)O)C1C(=O)O (stereo not drawn) | 6.53 min
Cc1cc(O)c(C)c2c1C(=O)Oc1c(C)c(O)c(C(=O)O)c(C)c1O2 | 5.63 min
Cc1cc(O)c(C)c2c1C(=O)Oc1cc(O)c(C(=O)O)c(C)c1O2 | 5.27 min
COc1cc(C)c(C)c(OC(=O)c2c(C)c(C=O)c(O)c(C=O)c2O)c1C | 6.73 min
CC(=O)OCC1OC(Oc2cc(O)c3c(=O)cc(C)oc3c2C)C(OC(C)=O)C(OC(C)=O)C1OC(C)=O (stereo not drawn) | 5.9 min
Cc1cc(O)c2c(c1)oc1cc(O)cc(C)c12 | 7.4 min
Cc1cc(O)c(C=O)c2c1C(=O)Oc1c(COC(=O)C=CC(=O)O)c(O)c(C(=O)O)c(C)c1O2 | 6.04 min
COc1cc(C)c(C(=O)Oc2cc(C)c(C(=O)O)c(O)c2)c(O)c1 | 6 min
Cc1cc(O)c2c(=O)c3c(C)cc(O)cc3oc2c1 | 6.34 min
O=C1OC2=C(c3ccccc3)C(=O)OC2=C1c1ccccc1 | 7.64 min
Cc1cc(O)c(C)c(O)c1 | 3.25 min
C=C1C(=O)OC(CCCCCCCCCCCCC)C1C(=O)O (stereo not drawn) | 7.88 min

Compound | LC retention time
O=C(NC(Cc1ccccc1)C(=O)O)C(=C1OC(=O)C(c2ccccc2)=C1O)c1ccccc1 (stereo not drawn) | 7.27 min
CCCCCC(=O)Cc1cc(O)cc2c1C(=O)Oc1cc(O)c(C(=O)O)c(CC(=O)CCCCC)c1O2 | 7.64 min
Cc1cc(O)c(C=O)c2c1C(=O)Oc1c(COC(=O)CCC(=O)O)c(O)c(C(=O)O)c(C)c1O2 | 6.28 min
CCCc1cc(OC(=O)c2c(O)cc(OC)cc2CCC)cc(O)c1C(=O)O | 7.33 min
CCCCCc1cc(OC(=O)c2c(CCCCC)cc(OC)cc2OC)cc(OC)c1C(=O)O | 7.52 min
CC(=O)OCC1OC(Oc2cc3oc(C)cc(=O)c3c(O)c2C)C(OC(C)=O)C(O)C1O (stereo not drawn) | 4.69 min
CCCCCCCCCCCCCCC(C(=O)O)C(CC(=O)O)C(=O)O (stereo not drawn) | 7.46 min
Cc1cc(O)cc2oc3cc(O)c4c(c3c12)COC4=O | 4.72 min
CC(=O)OC1C(C)C(C)OC2(C(C)C3OC(=O)C2(C)C(=O)C3C)C1C (stereo not drawn) | 5.84 min
CCCCCC(=O)Cc1cc(O)cc(O)c1C(=O)Oc1cc(CC(=O)CCCCC)c(C(=O)O)c(OC)c1 | 6.03 min
COC(=O)c1c(C)cc(OC(=O)c2c(C)cc(O)c(C=O)c2O)c(C)c1O | 7.14 min
COc1c(O)c(O)c2c(c1O)C(=O)c1oc(C(C)=O)c(O)c1C2=O | 4.5 min
CC(=O)OCC1OC(Oc2c(C)c(O)c3c(=O)cc(C)oc3c2C)C(O)C(O)C1O (stereo not drawn) | 4.2 min
CCCCCCCCCCCCCC1OC(=O)C(C)C1C(=O)O (stereo not drawn) | 8 min
CC(=O)c1c(O)cc(O)cc1O | 3.77 min
COc1cc(C)c2c(c1C=O)Oc1c(c(CO)c(O)c3c1C(O)OC3=O)OC2=O (stereo not drawn) | 4.06 min
COC1=CC(=O)C(=O)c2cc3oc(C)cc(=O)c3c(OC)c21 | 4.03 min
CCCCCCCCCCCC1OC(=O)C(C)C1C(=O)O (stereo not drawn) | 7.46 min
OCC(O)C(O)CO (stereo not drawn) | 4.05 min
O=C1c2oc3cc(O)c(O)cc3c2C(=O)c2oc3cc(O)c(O)cc3c21 | 4.52 min
COc1cc(C)c(C(=O)Oc2c(C)c(C(=O)O)c(O)c(C=O)c2O)c(O)c1C=O | 6.37 min
COCc1c(O)c(C(=O)O)c(C)c2c1OC(=O)c1c(C)cc(O)c(C=O)c1O2 | 5.99 min
COC(=O)C12Oc3ccc(-c4ccc5c(c4O)C(O)=C4C(=O)CC(C)C(O)C4(C(=O)OC)O5)c(O)c3C(O)=C1C(=O)CC(C)C2O (stereo not drawn) | 6 min
O=C1NC(c2ccccc2)CC(=O)N2CCCC2C(=O)NC(c2ccccc2)CC(=O)N2CCCC12 (stereo not drawn) | 5.08 min

Compound | LC retention time
CC1CCCCCCCCCCC(O)C(O)C(O)C=CC(=O)O1 (stereo not drawn) | 5.65 min
Cc1cc(OC(=O)c2c(C)cc(O)c(O)c2O)cc(O)c1C(=O)O | 4.69 min
CC(=O)C1=C(O)C=C2Oc3c(C)c(O)c(C(C)=O)c(O)c3C2(C)C1=O (stereo not drawn) | 7.45 min
CCCCCc1cc2cc(O)cc(O)c2c(=O)o1 | 6.08 min
O=C1OC(=C2C(=O)Oc3ccccc32)C(O)=C1c1ccccc1 | 7.68 min
COc1cc(C)c(C(=O)Oc2cc(C)c(C(=O)O)c(O)c2)c(O)c1C | 6.54 min
Cc1cc(O)cc(O)c1C(=O)O | 3.41 min
COc1cc(O)cc(C)c1C(=O)O | 2.35 min
COc1cc(C)c(C(=O)Oc2c(C)cc(O)c(C=O)c2O)c(O)c1C(=O)O | 5.7 min
CCCCCc1cc(OC(=O)c2c(O)cc(O)cc2CCCCC)cc(O)c1C(=O)O | 7.28 min
CCC(C)CC(C)C(O)C(C)C(=O)OC(C(C)CC(C)CC)C(C)C(=O)O (stereo not drawn) | 7.83 min
CCCCCc1cc(O)cc(O)c1C(=O)O | 5.24 min
CCCc1cc(OC)cc(O)c1C(=O)Oc1c(OC)cc(CCC)c(C(=O)O)c1O | 7.83 min
Cc1cc(O)c2c(c1)C(=O)c1c(c(O)cc(O)c1-c1c(O)cc(O)c3c1C(=O)c1cc(C)cc(O)c1C3=O)C2=O | 6.57 min
CC(=O)OC(C)CC1CC(OC(C)=O)C(C)C(O)C(C)C(=O)OC(CC(C)OC(C)=O)CC(OC(C)=O)C(C)C(O)C(C)C(=O)O1 (stereo not drawn) | 6.35 min
CCC(C)C(NC(=O)c1ccccc1)C(=O)NC(COC(=O)c1ccccc1)C(C)C (stereo not drawn) | 6.25 min
Cc1cc(=O)c2c(O)c(C)c(O)cc2o1 | 4.52 min
CC(C)CC(NC(=O)C(=C1OC(=O)C(c2ccccc2)=C1O)c1ccccc1)C(=O)O (stereo not drawn) | 7.26 min
CC(=O)OC1C(Oc2cc3oc(C)cc(=O)c3c(O)c2C)OC(CO)C(O)C1O (stereo not drawn) | 4 min
Cc1cc(O)c(C=O)c(O)c1C(=O)OCc1cc(O)c(C)c(O)c1C(=O)O | 6.74 min
CCCCCc1c(C(=O)O)c(O)cc2oc3cc(OC)cc(CCC)c3c12 | 7.09 min
